Results from US12427134B2, “Methods of reducing the risk of cardiovascular events in a subject with atrial fibrillation and/or atrial flutter” (priority 2019, dated 2025).

Test system: hypertriglyceridemic patients with cardiovascular disease or at high risk for cardiovascular disease
Test: REDUCE-IT: treatment-emergent adverse events and serious adverse events (safety population)
[1] = patients taking ezetimibe at baseline

Experimental: Specification of Variables and Procedures: Safety assessments included adverse events, clinical laboratory measurements (chemistry, hematology), 12-lead ECGs, vital signs (systolic and diastolic blood pressure, heart rate, respiratory rate, and body temperature), weight, waist circumference, and physical examinations as per Study Procedures in Table 1. […] All laboratory test results were evaluated by the investigator as to their clinical significance. Any observations at physical examinations or laboratory values considered by the investigator to be clinically significant were considered an adverse event.
An adverse event can therefore be any unfavorable and/or unintended sign (including an abnormal laboratory finding), symptom, or disease temporally associated with the use of an investigational medication product, whether or not related to the investigational medication product. All adverse events, including observed or volunteered problems, complaints, or symptoms, were recorded on the appropriate CRF. Each adverse event was evaluated for duration, intensity, and causal relationship with the study medication or other factors.
Adverse events, which included clinical laboratory test variables, were monitored from the time of informed consent until study participation was complete. Patients were instructed to report any adverse event that they experienced to the investigator. Beginning with Visit 2, investigators assessed for adverse events at each visit and recorded the event on the appropriate adverse event CRF.
Causality Assessment: The relationship of an adverse event to the administration of the study drug was assessed according to the following definitions: • No (unrelated, not related, no relation)—The time course between the administration of study drug and the occurrence or worsening of the adverse event rules out a causal relationship and another cause (concomitant drugs, therapies, complications, etc.) is suspected. • Yes (related, probably related, possibly related)—The time course between the administration of study drug and the occurrence or worsening of the adverse event is consistent with a causal relationship and no other cause (concomitant drugs, therapies, complications, etc.) can be identified.
Serious Adverse Events: A serious adverse event (SAE) is defined as an adverse event that meets any of the following criteria: • Results in death; • Is life-threatening—The term “life-threatening” in the definition of “serious” refers to an event in which the patient was at risk of death at the time of the event. […] Important medical events that may not result in death, be life threatening, or require hospitalization were considered an SAE when, based upon appropriate medical judgment, they may have jeopardized the patient and may have required medical or surgical intervention to prevent one of the outcomes listed above.
Analysis of Safety: All analyses of safety were conducted on the safety population, which was defined as all randomized patients. The safety assessment was based on the frequency of adverse events, physical exams, vital signs and safety laboratory tests. AEs with new onset during the study between the initiation of study drug and 30 days after the last dose of study drug for each patient was considered treatment-emergent (TEAEs). This included any AE with onset prior to initiation of study drug and increased severity after the treatment initiation.
This included overall incidence rates (regardless of severity and relationship to study drug), and incidence rates for moderate or severe adverse events. A summary of SAEs and adverse events leading to early discontinuation (for ≥30 days) were presented through data listings. Patients who restarted study drug were included in the summary of AEs leading to discontinuation.

## CC/C=C\C/C=C\C/C=C\C/C=C\C/C=C\CCCC(=O)OCC [AMR101, eicosapentaenoic acid ethyl ester]
Safety population, N = 4089
  Serious adverse event - Anemia, n patients: 22
  Serious adverse event - Angina pectoris, % patients: (1.2) %
  Serious adverse event - Angina pectoris, n patients: 48
  Serious adverse event - Angina unstable, % patients: (1.0) %
  Serious adverse event - Angina unstable, n patients: 41
  Serious adverse event - Atrial fibrillation, % patients: (0.5) %
  Serious adverse event - Atrial fibrillation, n patients: 21
  Serious adverse event - Blood and lymphatic system disorders (SOC), % patients: (1.0) %
  Serious adverse event - Blood and lymphatic system disorders (SOC), n patients: 39
  Serious adverse event - Cardiac disorders (SOC), % patients: (4.7) %
  Serious adverse event - Cardiac disorders (SOC), n patients: 192
  Serious adverse event - Cardiac failure congestive, % patients: (0.5) %
  Serious adverse event - Cardiac failure congestive, n patients: 19
  Serious adverse event - Cellulitis, % patients: (0.9) %
  Serious adverse event - Cellulitis, n patients: 36
  Serious adverse event - Chest pain, % patients: (1.6) %
  Serious adverse event - Chest pain, n patients: 66
  Serious adverse event - Chronic obstructive pulmonary disease, % patients: (0.8) %
  Serious adverse event - Chronic obstructive pulmonary disease, n patients: 33
  Serious adverse event - Gastrointestinal disorders (SOC), % patients: (4.7) %
  Serious adverse event - Gastrointestinal disorders (SOC), n patients: 191
  Serious adverse event - Gastrointestinal hemorrhage, % patients: (0.6) %
  Serious adverse event - Gastrointestinal hemorrhage, n patients: 26
  Serious adverse event - General disorders and administration site conditions (SOC), % patients: (3.4) %
  Serious adverse event - General disorders and administration site conditions (SOC), n patients: 139
  Serious adverse event - Musculoskeletal and connective tissue disorders (SOC), % patients: (4.6) %
  Serious adverse event - Musculoskeletal and connective tissue disorders (SOC), n patients: 188
  Serious adverse event - Neoplasms benign, malignant, and unspecified (incl cysts and polyps) (SOC), % patients: (5.4) %
  Serious adverse event - Neoplasms benign, malignant, and unspecified (incl cysts and polyps) (SOC), n patients: 222
  Serious adverse event - Nervous system disorders (SOC), % patients: (2.5) %
  Serious adverse event - Nervous system disorders (SOC), n patients: 104
  Serious adverse event - Non-cardiac chest pain, % patients: (1.2) %
  Serious adverse event - Non-cardiac chest pain, n patients: 49
  Serious adverse event - Osteoarthritis, % patients: (2.0) %
  Serious adverse event - Osteoarthritis, n patients: 81
  Serious adverse event - Pneumonia, % patients: (2.6) %
  Serious adverse event - Pneumonia, n patients: 105
  Serious adverse event - Prostate cancer, % patients: (0.6) %
  Serious adverse event - Prostate cancer, n patients: 26
  Serious adverse event - Pulmonary embolism, % patients: (0.3) %
  Serious adverse event - Pulmonary embolism, n patients: 14
  Serious adverse event - Renal and urinary disorders (SOC), % patients: (2.9) %
  Serious adverse event - Renal and urinary disorders (SOC), n patients: 120
  Serious adverse event - Respiratory, thoracic, and mediastinal disorders (SOC), % patients: (3.5) %
  Serious adverse event - Respiratory, thoracic, and mediastinal disorders (SOC), n patients: 143
  Serious adverse event - Syncope, % patients: (0.7) %
  Serious adverse event - Syncope, n patients: 28
  Severe TEAE, %: (19.7) %
  Severe TEAE: Acute kidney injury, %: (0.7) %
  Severe TEAE: Acute respiratory failure, %: (0.5) %
  Severe TEAE: Angina pectoris, %: (0.2) %
  Severe TEAE: Angina unstable, %: (0.3) %
  Severe TEAE: Back pain, %: (0.5) %
  Severe TEAE: Cardiac disorders, %: (2.4) %
  Severe TEAE: Chest pain, %: (0.7) %
  Severe TEAE: Chronic obstructive pulmonary disease, %: (0.4) %
  Severe TEAE: General disorders and administration site conditions, %: (1.9) %
  Severe TEAE: Musculoskeletal and connective tissue disorders, %: (2.9) %
  Severe TEAE: Nervous system disorders, %: (1.9) %
  Severe TEAE: Osteoarthritis, %: (0.8) %
  Severe TEAE: Pneumonia, %: (1.5) %
  Severe TEAE: Renal and urinary disorders, %: (1.9) %
  Severe TEAE: Respiratory, thoracic, and mediastinal disorders, %: (2.5) %
  Severe TEAE: Syncope, %: (0.3) %
  Study Drug-Related Serious TEAE Leading to Withdrawal of Study Drug, %: (0.0) %
  Study Drug-Related Serious TEAE, %: (0.2) %
  Study Drug-Related TEAE Leading to Withdrawal of Study Drug, %: (3.4) %
  Study Drug-Related TEAE, %: (12.6) %
  Study drug-related TEAE leading to study drug withdrawal - Abdominal discomfort, % patients: (0.1) %
  Study drug-related TEAE leading to study drug withdrawal - Abdominal discomfort, n patients: 6
  Study drug-related TEAE leading to study drug withdrawal - Abdominal distension, % patients: (0.1) %
  Study drug-related TEAE leading to study drug withdrawal - Abdominal distension, n patients: 3
  Study drug-related TEAE leading to study drug withdrawal - Abdominal pain upper, % patients: (0.1) %
  Study drug-related TEAE leading to study drug withdrawal - Abdominal pain upper, n patients: 4
  Study drug-related TEAE leading to study drug withdrawal - Abdominal pain, % patients: (0.0) %
  Study drug-related TEAE leading to study drug withdrawal - Abdominal pain, n patients: 1
  Study drug-related TEAE leading to study drug withdrawal - Abnormal feces, % patients: (0.0) %
  Study drug-related TEAE leading to study drug withdrawal - Abnormal feces, n patients: 0
  Study drug-related TEAE leading to study drug withdrawal - Arthralgia, % patients: (0.2) %
  Study drug-related TEAE leading to study drug withdrawal - Arthralgia, n patients: 7
  Study drug-related TEAE leading to study drug withdrawal - Arthritis, % patients: (0.1) %
  Study drug-related TEAE leading to study drug withdrawal - Arthritis, n patients: 3
  Study drug-related TEAE leading to study drug withdrawal - Constipation, % patients: (0.1) %
  Study drug-related TEAE leading to study drug withdrawal - Constipation, n patients: 4
  Study drug-related TEAE leading to study drug withdrawal - Diarrhea, % patients: (1.0) %
  Study drug-related TEAE leading to study drug withdrawal - Diarrhea, n patients: 41
  Study drug-related TEAE leading to study drug withdrawal - Dyspepsia, % patients: (0.1) %
  Study drug-related TEAE leading to study drug withdrawal - Dyspepsia, n patients: 4
  Study drug-related TEAE leading to study drug withdrawal - Eructation, % patients: (0.1) %
  Study drug-related TEAE leading to study drug withdrawal - Eructation, n patients: 3
  Study drug-related TEAE leading to study drug withdrawal - Flatulence, % patients: (0.1) %
  Study drug-related TEAE leading to study drug withdrawal - Flatulence, n patients: 6
  Study drug-related TEAE leading to study drug withdrawal - Gastric disorder, % patients: (0.1) %
  Study drug-related TEAE leading to study drug withdrawal - Gastric disorder, n patients: 4
  Study drug-related TEAE leading to study drug withdrawal - Gastroesophageal reflux disease, % patients: (0.1) %
  Study drug-related TEAE leading to study drug withdrawal - Gastroesophageal reflux disease, n patients: 5
  Study drug-related TEAE leading to study drug withdrawal - Gastrointestinal disorders (SOC), % patients: (2.4) %
  Study drug-related TEAE leading to study drug withdrawal - Gastrointestinal disorders (SOC), n patients: 97
  Study drug-related TEAE leading to study drug withdrawal - Hypersensitivity, % patients: (0.1) %
  Study drug-related TEAE leading to study drug withdrawal - Hypersensitivity, n patients: 3
  Study drug-related TEAE leading to study drug withdrawal - Immune system disorders (SOC), % patients: (0.1) %
  Study drug-related TEAE leading to study drug withdrawal - Immune system disorders (SOC), n patients: 4
  Study drug-related TEAE leading to study drug withdrawal - Muscle spasms, % patients: (0.0) %
  Study drug-related TEAE leading to study drug withdrawal - Muscle spasms, n patients: 0
  Study drug-related TEAE leading to study drug withdrawal - Musculoskeletal and connective tissue disorders (SOC), % patients: (0.3) %
  Study drug-related TEAE leading to study drug withdrawal - Musculoskeletal and connective tissue disorders (SOC), n patients: 13
  Study drug-related TEAE leading to study drug withdrawal - Nausea, % patients: (0.4) %
  Study drug-related TEAE leading to study drug withdrawal - Nausea, n patients: 16
  Study drug-related TEAE leading to study drug withdrawal - Pruritus generalized, % patients: (0.1) %
  Study drug-related TEAE leading to study drug withdrawal - Pruritus generalized, n patients: 3
  Study drug-related TEAE leading to study drug withdrawal - Pruritus, % patients: (0.0) %
  Study drug-related TEAE leading to study drug withdrawal - Pruritus, n patients: 1
  Study drug-related TEAE leading to study drug withdrawal - Rash, % patients: (0.1) %
  Study drug-related TEAE leading to study drug withdrawal - Rash, n patients: 3
  Study drug-related TEAE leading to study drug withdrawal - Skin and subcutaneous disorders (SOC), % patients: (0.4) %
  Study drug-related TEAE leading to study drug withdrawal - Skin and subcutaneous disorders (SOC), n patients: 16
  Study drug-related TEAE leading to study drug withdrawal - Skin odor abnormal, % patients: (0.1) %
  Study drug-related TEAE leading to study drug withdrawal - Skin odor abnormal, n patients: 3
  Study drug-related TEAE leading to study drug withdrawal - Vomiting, % patients: (0.1) %
  Study drug-related TEAE leading to study drug withdrawal - Vomiting, n patients: 3
  Study drug-related TEAE: Arthralgia, %: (0.6) %
  Study drug-related TEAE: Diarrhea, %: (2.7) %
  Study drug-related TEAE: Dyspepsia, %: (0.4) %
  Study drug-related TEAE: Eructation, %: (0.9) %
  Study drug-related TEAE: Flatulence, %: (0.8) %
  Study drug-related TEAE: Gastrointestinal disorders, %: (7.4) %
  Study drug-related TEAE: Musculoskeletal and connective tissue disorders, %: (1.4) %
  Study drug-related TEAE: Nausea, %: (0.8) %
  Subjects with at Least One TEAE: 3343 (81.8%) n (%)
  TEAE Leading to Withdrawal of Study Drug, %: (7.9) %
  TEAE: Anemia, %: (4.7) %
  TEAE: Angina pectoris, %: (4.9) %
  TEAE: Arthralgia, %: (7.7) %
  TEAE: Atrial fibrillation, %: (5.3) %
  TEAE: Back pain, %: (8.2) %
  TEAE: Blood and lymphatic system disorders, %: (7.9) %
  TEAE: Bronchitis, %: (7.5) %
  TEAE: Cardiac disorders, %: (22.3) %
  TEAE: Cataract, %: (5.7) %
  TEAE: Chest pain, %: (6.7) %
  TEAE: Constipation, %: (5.4) %
  TEAE: Cough, %: (5.9) %
  TEAE: Diabetes mellitus, %: (4.1) %
  TEAE: Diarrhea, %: (9.0) %
  TEAE: Dizziness, %: (5.7) %
  TEAE: Dyspnea, %: (6.2) %
  TEAE: Edema peripheral, %: (6.5) %
  TEAE: Eye disorders, %: (11.7) %
  TEAE: Fall, %: (3.6) %
  TEAE: Fatigue, %: (5.6) %
  TEAE: Gastroesophageal reflux disease, %: (3.0) %
  TEAE: Gastrointestinal disorders, %: (33.0) %
  TEAE: General disorders and administration site conditions, %: (25.2) %
  TEAE: Gout, %: (4.2) %
  TEAE: Headache, %: (4.2) %
  TEAE: Hypertension, %: (7.8) %
  TEAE: Infections and infestations, %: (44.6) %
  TEAE: Influenza, %: (6.4) %
  TEAE: Injury, poisoning, and procedural complications, %: (18.3) %
  TEAE: Insomnia, %: (3.0) %
  TEAE: Metabolism and nutrition disorders, %: (23.3) %
  TEAE: Muscle spasms, %: (2.5) %
  TEAE: Musculoskeletal and connective tissue disorders, %: (35.9) %
  TEAE: Musculoskeletal pain, %: (4.3) %
  TEAE: Myalgia, %: (3.3) %
  TEAE: Nasopharyngitis, %: (7.7) %
  TEAE: Nausea, %: (4.6) %
  TEAE: Nervous system disorders, %: (24.6) %
  TEAE: Non-cardiac chest pain, %: (3.9) %
  TEAE: Osteoarthritis, %: (5.9) %
  TEAE: Pain in extremity, %: (5.7) %
  TEAE: Pneumonia, %: (6.4) %
  TEAE: Psychiatric disorders, %: (9.1) %
  TEAE: Respiratory, thoracic, and mediastinal disorders, %: (24.2) %
  TEAE: Sinusitis, %: (4.1) %
  TEAE: Type 2 diabetes mellitus, %: (3.6) %
  TEAE: Vascular disorders, %: (17.3) %
  Ventricular extrasystoles TEAE, Event Rate: 0.7%
  Ventricular extrasystoles TEAE, Number of Subjects: 27
  Ventricular fibrillation TEAE, Event Rate: 0.0%
  Ventricular fibrillation TEAE, Number of Subjects: 0
  Ventricular tachycardia TEAE, Event Rate: 0.3%
  Ventricular tachycardia TEAE, Number of Subjects: 12
[1]
  TEAE class GI disorders, patients: 37.4%
  TEAE class general disorders and administration site conditions, patients: 26.3%
  TEAE class musculoskeletal and connective tissue disorders, patients: 41.2%
  TEAE class nervous system disorders, patients: 23.7%
  TEAE class respiratory, thoracic, and mediastinal disorders, patients: 27.5%
